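Method: 48-hour compound exposure of cells in 96-well plates, five concentrations, linear interpolation of endpoints. The concentration for 50% growth inhibition is given as GI50.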 Active and inactive are the calls of the source. Rule as the data show it: active = GI50 up to about 1.1 µM and inactive = higher.
Legend:
Test in all cases: NCI-60 cell line screen, 48 h
DU-145 = tested on: DU-145
KM12 = tested on: KM12
SK-OV-3 = tested on: SK-OV-3
786-0 = tested on: 786-0
LOX IMVI = tested on: LOX IMVI
T47D = tested on: T47D
OVCAR-5 = tested on: OVCAR-5
U-251 = tested on: U-251
CCRF-CEM = tested on: CCRF-CEM
HT-29 = tested on: HT-29
MDA-MB-231 = tested on: MDA-MB-231
SN12C = tested on: SN12C
UACC-257 = tested on: UACC-257
SK-MEL-5 = tested on: SK-MEL-5
A549 = tested on: A549
SK-MEL-28 = tested on: SK-MEL-28
SF-539 = tested on: SF-539
MDA-MB-435 = tested on: MDA-MB-435
RPMI-8226 = tested on: RPMI-8226
A498 = tested on: A498

Measured: GI50

COc1ccc(Cn2c3c(cc(OC(C)=O)c2=O)Cc2ccccc2-3)cc1
inactive: DU-145 12.2 µM | KM12 11.4 µM | SK-OV-3 20 µM | 786-0 5.33 µM | LOX IMVI 6.12 µM | T47D 14.6 µM | OVCAR-5 18.7 µM | U-251 8.65 µM | CCRF-CEM 2 µM | HT-29 10.7 µM | MDA-MB-231 13.2 µM | SN12C 7.55 µM | UACC-257 2.28 µM | SK-MEL-5 12.2 µM | A549 13.9 µM | SK-MEL-28 22.1 µM | SF-539 8.02 µM | MDA-MB-435 11 µM

O=C(Nc1cccc2cnccc12)c1cc2c(cc1Cl)Sc1nccn1S2(=O)=O
inactive: DU-145 13.6 µM | KM12 4.66 µM | SK-OV-3 40 µM | 786-0 10.9 µM | RPMI-8226 6.11 µM | LOX IMVI 5.65 µM | T47D 6 µM | OVCAR-5 25.2 µM | U-251 10.4 µM | HT-29 14.6 µM | MDA-MB-231 14.9 µM | SN12C 14.4 µM | UACC-257 18.1 µM | SK-MEL-5 12.1 µM | A549 27.7 µM | SK-MEL-28 17.6 µM | SF-539 14.6 µM | MDA-MB-435 6.76 µM

CCOC(=O)C(NC(=O)c1ccco1)(Nc1nc2ccc(OCC)cc2s1)C(F)(F)F (configuration not stated)
inactive: DU-145 55.3 µM | KM12 21.8 µM | SK-OV-3 52.8 µM | 786-0 21.7 µM | T47D 26.9 µM | OVCAR-5 34.1 µM | U-251 35.2 µM | CCRF-CEM 23.8 µM | HT-29 32.3 µM | MDA-MB-231 55.3 µM | SN12C 37.9 µM | UACC-257 28.4 µM | SK-MEL-5 19.4 µM | A549 28.8 µM | SK-MEL-28 97.3 µM | SF-539 43.2 µM | MDA-MB-435 24.4 µM

O=C(CCNC(=O)OCc1ccccc1)OCCCNC(=O)OCc1ccccc1
inactive: DU-145 > 100 µM | KM12 > 100 µM | SK-OV-3 > 100 µM | 786-0 > 100 µM | RPMI-8226 > 100 µM | LOX IMVI > 100 µM | T47D > 100 µM | OVCAR-5 > 100 µM | U-251 > 100 µM | CCRF-CEM > 100 µM | HT-29 > 100 µM | MDA-MB-231 > 100 µM | SN12C > 100 µM | UACC-257 > 100 µM | SK-MEL-5 > 100 µM | A549 > 100 µM | SK-MEL-28 > 100 µM | SF-539 > 100 µM | MDA-MB-435 > 100 µM

CC(=O)c1cccc(Nc2nc3ccc(Cl)cc3c3[nH]c4ccccc4c23)c1
inactive: DU-145 4.35 µM | KM12 4.94 µM | SK-OV-3 4.15 µM | 786-0 1.85 µM | RPMI-8226 6.95 µM | T47D 6.52 µM | OVCAR-5 5.79 µM | U-251 2.12 µM | CCRF-CEM 27.4 µM | HT-29 6.21 µM | MDA-MB-231 11.6 µM | SN12C 13.1 µM | UACC-257 13.4 µM | SK-MEL-5 1.44 µM | A549 2.24 µM | SF-539 5.28 µM | MDA-MB-435 7.26 µM

S=C(N1CCN(c2cccc(Cl)c2)CC1)N1CCN(c2cccc(Cl)c2)CC1
inactive: DU-145 30.3 µM | KM12 24.4 µM | SK-OV-3 > 100 µM | 786-0 33.3 µM | RPMI-8226 34.6 µM | T47D 16.9 µM | OVCAR-5 44.1 µM | U-251 87.3 µM | CCRF-CEM 5.71 µM | HT-29 28.8 µM | MDA-MB-231 11 µM | UACC-257 77.3 µM | SK-MEL-5 34.2 µM | A549 68.1 µM | SK-MEL-28 42.9 µM | MDA-MB-435 82 µM

CCN(C(=S)N[C@H](C(=O)N[C@@H](C)C(=O)OC)C(C)C)c1ccccc1
inactive: DU-145 > 100 µM | KM12 > 100 µM | SK-OV-3 > 100 µM | 786-0 59.7 µM | RPMI-8226 63.2 µM | LOX IMVI 52.6 µM | T47D > 100 µM | OVCAR-5 > 100 µM | U-251 > 100 µM | CCRF-CEM 27.8 µM | HT-29 31.5 µM | MDA-MB-231 > 100 µM | SN12C 66.8 µM | UACC-257 44.7 µM | SK-MEL-5 71.4 µM | A549 > 100 µM | SK-MEL-28 > 100 µM | SF-539 28 µM | MDA-MB-435 64 µM

N#Cc1c(N)nc(S)c(C#N)c1-c1ccccc1
inactive: DU-145 > 100 µM | KM12 > 100 µM | 786-0 > 100 µM | A498 > 100 µM | RPMI-8226 > 100 µM | LOX IMVI > 100 µM | T47D > 100 µM | OVCAR-5 > 100 µM | U-251 > 100 µM | CCRF-CEM > 100 µM | HT-29 > 100 µM | MDA-MB-231 > 100 µM | SN12C > 100 µM | UACC-257 > 100 µM | SK-MEL-5 > 100 µM | A549 > 100 µM | SK-MEL-28 > 100 µM | SF-539 > 100 µM
